Laboratory results from the kinase profiling compilation of Christmann-Franck et al. (2016).

How the values were obtained:
Assay in all cases: KINOMEscan competition binding
Conditions in all cases: compound 10.0 µM
AURKB (human) = AURKB (human) (UniProt Q96GD4)
CAMK2D (human) = CAMK2D (human) (UniProt Q13557)
CDK3 (human) = CDK3 (human) (UniProt Q00526)
CIT (human) = CIT (human) (UniProt O14578)
CSNK1G1 (human) = CSNK1G1 (human) (UniProt Q9HCP0)
DAPK1 (human) = DAPK1 (human) (UniProt P53355)
EGFR (human) = EGFR (human) (UniProt P00533)
EPHB6 (human) = EPHB6 (human) (UniProt O15197)
GAK (human) = GAK (human) (UniProt O14976)
[1] = target: JAK1 JH1 catalytic (human) (UniProt P23458)
MAP3K6 (human) = MAP3K6 (human) (UniProt O95382)
MAP4K5 (human) = MAP4K5 (human) (UniProt Q9Y4K4)
MAPK12 (human) = MAPK12 (human) (UniProt P53778)
MKNK2 (human) = MKNK2 (human) (UniProt Q9HBH9)
NEK5 (human) = NEK5 (human) (UniProt Q6P3R8)
PDGFRA (human) = PDGFRA (human) (UniProt P16234)
PDPK1 (human) = PDPK1 (human) (UniProt O15530)
Chain of PDPK1 (human) (O15530 whole entry, looked up): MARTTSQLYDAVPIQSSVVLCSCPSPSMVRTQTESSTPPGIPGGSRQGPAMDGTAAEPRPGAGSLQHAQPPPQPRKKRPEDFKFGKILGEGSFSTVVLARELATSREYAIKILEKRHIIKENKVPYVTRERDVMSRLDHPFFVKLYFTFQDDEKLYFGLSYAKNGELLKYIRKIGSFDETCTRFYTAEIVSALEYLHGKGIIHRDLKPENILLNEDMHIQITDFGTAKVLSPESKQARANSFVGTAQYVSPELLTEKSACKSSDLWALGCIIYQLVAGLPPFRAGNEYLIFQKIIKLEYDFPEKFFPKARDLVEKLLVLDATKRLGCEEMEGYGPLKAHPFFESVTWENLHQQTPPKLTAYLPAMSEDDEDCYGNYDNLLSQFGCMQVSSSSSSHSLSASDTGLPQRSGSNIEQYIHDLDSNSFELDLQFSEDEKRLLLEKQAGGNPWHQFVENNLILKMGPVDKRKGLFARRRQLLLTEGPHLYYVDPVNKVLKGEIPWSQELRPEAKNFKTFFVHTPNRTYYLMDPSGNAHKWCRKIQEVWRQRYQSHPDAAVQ

[2] = system: PIK3CA (human), P42336 [H1047L]
[3] = system: PIK3CA (human), P42336 [M1043I]
PIK3CB (human) = PIK3CB (human) (UniProt P42338)
PRKCE (human) = PRKCE (human) (UniProt Q02156)
PRKD2 (human) = PRKD2 (human) (UniProt Q9BZL6)
PTK2B (human) = PTK2B (human) (UniProt Q14289)
Chain of PTK2B (human) (Q14289 whole entry, looked up): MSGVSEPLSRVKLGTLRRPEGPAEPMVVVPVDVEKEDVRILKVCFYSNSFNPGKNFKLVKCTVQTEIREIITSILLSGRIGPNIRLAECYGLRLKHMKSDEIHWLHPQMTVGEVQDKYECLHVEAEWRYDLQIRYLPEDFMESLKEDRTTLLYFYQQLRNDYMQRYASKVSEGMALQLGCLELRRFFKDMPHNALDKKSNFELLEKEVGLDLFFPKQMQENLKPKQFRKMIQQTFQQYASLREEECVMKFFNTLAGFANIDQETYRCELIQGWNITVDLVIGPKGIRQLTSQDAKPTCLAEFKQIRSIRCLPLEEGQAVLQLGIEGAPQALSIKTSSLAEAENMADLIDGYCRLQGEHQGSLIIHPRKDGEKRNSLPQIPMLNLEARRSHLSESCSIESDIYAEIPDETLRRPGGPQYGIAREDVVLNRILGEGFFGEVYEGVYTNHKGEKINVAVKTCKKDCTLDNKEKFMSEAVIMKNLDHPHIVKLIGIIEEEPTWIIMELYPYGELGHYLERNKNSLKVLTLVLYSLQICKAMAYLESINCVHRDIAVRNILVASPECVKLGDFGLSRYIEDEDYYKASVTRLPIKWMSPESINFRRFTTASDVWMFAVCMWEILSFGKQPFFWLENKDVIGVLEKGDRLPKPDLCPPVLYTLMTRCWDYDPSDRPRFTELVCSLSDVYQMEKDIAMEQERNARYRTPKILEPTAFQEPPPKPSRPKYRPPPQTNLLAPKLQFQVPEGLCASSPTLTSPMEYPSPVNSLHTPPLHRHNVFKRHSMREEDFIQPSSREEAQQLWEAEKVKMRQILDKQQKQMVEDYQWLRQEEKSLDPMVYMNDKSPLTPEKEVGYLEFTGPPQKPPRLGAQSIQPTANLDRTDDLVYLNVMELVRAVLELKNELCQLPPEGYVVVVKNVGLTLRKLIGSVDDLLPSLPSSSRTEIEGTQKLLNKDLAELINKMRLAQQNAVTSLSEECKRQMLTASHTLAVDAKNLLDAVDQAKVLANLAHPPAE

[4] = system: RET (human), P07949 [V804L]
RIOK3 (human) = RIOK3 (human) (UniProt O14730)
Chain of RIOK3 (human) (O14730 whole entry, looked up): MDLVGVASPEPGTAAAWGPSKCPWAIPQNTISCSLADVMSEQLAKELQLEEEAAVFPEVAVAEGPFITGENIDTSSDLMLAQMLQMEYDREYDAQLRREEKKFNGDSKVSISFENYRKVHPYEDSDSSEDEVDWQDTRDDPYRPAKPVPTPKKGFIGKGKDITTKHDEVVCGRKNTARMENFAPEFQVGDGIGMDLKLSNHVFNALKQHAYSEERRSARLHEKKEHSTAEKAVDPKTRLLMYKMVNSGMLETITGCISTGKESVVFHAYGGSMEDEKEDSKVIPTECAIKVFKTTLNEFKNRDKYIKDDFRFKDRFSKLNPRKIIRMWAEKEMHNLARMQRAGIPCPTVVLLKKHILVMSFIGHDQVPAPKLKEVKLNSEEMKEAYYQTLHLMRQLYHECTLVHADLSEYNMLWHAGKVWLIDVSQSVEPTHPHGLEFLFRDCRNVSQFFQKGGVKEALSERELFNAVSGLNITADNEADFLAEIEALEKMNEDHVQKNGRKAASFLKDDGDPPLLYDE

SIK1 (human) = SIK1 (human) (UniProt P57059)
Chain of SIK1 (human) (P57059 whole entry, looked up): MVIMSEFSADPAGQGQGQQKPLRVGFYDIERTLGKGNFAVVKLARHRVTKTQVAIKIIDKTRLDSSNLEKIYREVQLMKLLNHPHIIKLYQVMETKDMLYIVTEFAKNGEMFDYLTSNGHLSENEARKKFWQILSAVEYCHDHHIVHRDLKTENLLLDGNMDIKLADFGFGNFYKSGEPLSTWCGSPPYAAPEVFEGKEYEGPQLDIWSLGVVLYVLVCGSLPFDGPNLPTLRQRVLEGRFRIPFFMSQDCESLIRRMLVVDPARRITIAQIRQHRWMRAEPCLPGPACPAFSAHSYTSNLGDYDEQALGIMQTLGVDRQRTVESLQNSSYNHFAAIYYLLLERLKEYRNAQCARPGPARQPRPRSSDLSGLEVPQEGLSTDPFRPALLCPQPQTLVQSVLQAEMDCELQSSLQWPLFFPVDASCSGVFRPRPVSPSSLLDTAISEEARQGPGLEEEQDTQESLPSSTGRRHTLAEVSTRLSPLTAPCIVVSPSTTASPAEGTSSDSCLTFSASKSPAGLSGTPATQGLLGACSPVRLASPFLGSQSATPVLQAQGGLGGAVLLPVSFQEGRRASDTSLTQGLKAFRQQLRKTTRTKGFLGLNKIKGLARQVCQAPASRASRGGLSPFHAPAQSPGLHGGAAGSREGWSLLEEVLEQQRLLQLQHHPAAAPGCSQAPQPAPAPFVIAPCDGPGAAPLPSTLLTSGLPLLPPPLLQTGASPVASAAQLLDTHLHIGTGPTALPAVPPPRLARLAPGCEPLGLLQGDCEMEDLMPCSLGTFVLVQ

STK10 (human) = STK10 (human) (UniProt O94804)
STK36 (human) = STK36 (human) (UniProt Q9NRP7)
[5] = target: TYK2 JH2 pseudokinase (human) (UniProt P29597)
ULK1 (human) = ULK1 (human) (UniProt O75385)
ULK3 (human) = ULK3 (human) (UniProt Q6PHR2)
WEE1 (human) = WEE1 (human) (UniProt P30291)

Chain of CIT (human) (O14578 whole entry, looked up): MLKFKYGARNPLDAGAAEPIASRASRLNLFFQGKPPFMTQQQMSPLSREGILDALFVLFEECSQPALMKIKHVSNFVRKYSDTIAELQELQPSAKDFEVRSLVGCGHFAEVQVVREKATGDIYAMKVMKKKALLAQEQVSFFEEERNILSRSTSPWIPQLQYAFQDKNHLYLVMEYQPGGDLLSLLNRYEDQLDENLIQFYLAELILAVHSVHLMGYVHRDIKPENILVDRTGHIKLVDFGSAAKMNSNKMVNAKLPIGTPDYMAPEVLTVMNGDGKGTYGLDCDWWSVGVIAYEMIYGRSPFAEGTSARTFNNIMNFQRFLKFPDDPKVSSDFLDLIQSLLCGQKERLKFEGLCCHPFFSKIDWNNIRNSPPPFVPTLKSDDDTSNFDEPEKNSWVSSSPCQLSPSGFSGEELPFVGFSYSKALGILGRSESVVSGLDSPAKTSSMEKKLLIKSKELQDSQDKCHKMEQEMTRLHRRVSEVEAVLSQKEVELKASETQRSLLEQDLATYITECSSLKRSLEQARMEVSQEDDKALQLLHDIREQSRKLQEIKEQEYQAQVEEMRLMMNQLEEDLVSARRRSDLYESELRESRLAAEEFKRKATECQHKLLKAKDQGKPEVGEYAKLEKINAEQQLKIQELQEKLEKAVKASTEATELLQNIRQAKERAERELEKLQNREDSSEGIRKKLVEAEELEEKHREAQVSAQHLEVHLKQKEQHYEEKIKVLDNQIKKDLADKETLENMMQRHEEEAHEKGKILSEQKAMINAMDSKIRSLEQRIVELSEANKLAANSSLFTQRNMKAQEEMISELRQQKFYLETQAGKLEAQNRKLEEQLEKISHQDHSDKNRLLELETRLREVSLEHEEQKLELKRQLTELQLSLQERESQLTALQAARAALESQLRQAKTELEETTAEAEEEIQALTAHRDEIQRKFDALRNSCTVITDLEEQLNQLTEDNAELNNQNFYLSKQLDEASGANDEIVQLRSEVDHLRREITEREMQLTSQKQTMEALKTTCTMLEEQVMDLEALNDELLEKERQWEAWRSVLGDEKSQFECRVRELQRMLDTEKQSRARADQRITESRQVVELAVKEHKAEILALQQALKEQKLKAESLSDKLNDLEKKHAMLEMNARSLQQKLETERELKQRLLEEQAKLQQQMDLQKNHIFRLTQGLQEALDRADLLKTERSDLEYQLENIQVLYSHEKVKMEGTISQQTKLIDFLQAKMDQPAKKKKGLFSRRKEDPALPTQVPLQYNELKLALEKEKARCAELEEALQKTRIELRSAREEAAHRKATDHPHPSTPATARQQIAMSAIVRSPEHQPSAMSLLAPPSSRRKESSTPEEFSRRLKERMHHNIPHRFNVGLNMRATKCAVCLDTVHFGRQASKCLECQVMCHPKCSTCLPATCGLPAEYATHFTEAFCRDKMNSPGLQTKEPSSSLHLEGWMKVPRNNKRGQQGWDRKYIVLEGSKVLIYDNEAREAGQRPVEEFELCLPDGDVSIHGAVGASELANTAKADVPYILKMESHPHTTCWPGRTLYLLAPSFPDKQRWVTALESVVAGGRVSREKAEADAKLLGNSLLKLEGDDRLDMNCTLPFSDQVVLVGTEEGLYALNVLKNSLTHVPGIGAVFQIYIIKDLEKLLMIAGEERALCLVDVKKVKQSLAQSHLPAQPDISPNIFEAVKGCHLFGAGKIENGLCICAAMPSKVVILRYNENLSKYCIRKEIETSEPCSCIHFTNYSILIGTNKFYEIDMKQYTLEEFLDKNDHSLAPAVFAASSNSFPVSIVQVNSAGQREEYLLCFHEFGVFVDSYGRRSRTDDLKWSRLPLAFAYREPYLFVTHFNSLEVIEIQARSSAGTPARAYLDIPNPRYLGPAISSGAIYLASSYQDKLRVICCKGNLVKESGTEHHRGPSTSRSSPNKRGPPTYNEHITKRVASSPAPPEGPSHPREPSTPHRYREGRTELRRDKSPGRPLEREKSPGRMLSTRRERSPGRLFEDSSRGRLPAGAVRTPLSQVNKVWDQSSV

SMILES	kinase still bound, per cent of control (AURKB (human))	kinase still bound, per cent of control (CAMK2D (human))	kinase still bound, per cent of control (CDK3 (human))	kinase still bound, per cent of control (CIT (human))	kinase still bound, per cent of control (CSNK1G1 (human))	kinase still bound, per cent of control (DAPK1 (human))	kinase still bound, per cent of control (EGFR (human))	kinase still bound, per cent of control (GAK (human))	kinase still bound, per cent of control (MAP4K5 (human))	kinase still bound, per cent of control (MAPK12 (human))	kinase still bound, per cent of control (MKNK2 (human))	kinase still bound, per cent of control (NEK5 (human))	kinase still bound, per cent of control (PDGFRA (human))	kinase still bound, per cent of control (PDPK1 (human))	kinase still bound, per cent of control (PRKCE (human))	kinase still bound, per cent of control (PRKD2 (human))	kinase still bound, per cent of control (PTK2B (human))	kinase still bound, per cent of control (RIOK3 (human))	kinase still bound, per cent of control (SIK1 (human))	kinase still bound, per cent of control (STK10 (human))	other results
COc1cc(C)c(Sc2cnc(NC(=O)c3ccc(CNC(C)C(C)C)cc3)s2)cc1C(=O)N1CCN(C(C)=O)CC1 (configuration not stated)	100%	100%	100%	100%	100%	100%	100%	100%	100%	100%	100%	100%	100%	100%	100%	100%	100%	100%	100%	13%	kinase still bound, per cent of control [1]: 100%; kinase still bound, per cent of control (PIK3CB (human)): 100%; kinase still bound, per cent of control [4]: 100%; kinase still bound, per cent of control (STK36 (human)): 100%; kinase still bound, per cent of control [5]: 100%; kinase still bound, per cent of control (ULK1 (human)): 25%; kinase still bound, per cent of control (ULK3 (human)): 100%; kinase still bound, per cent of control (WEE1 (human)): 100%
CCOc1cc(N2CCC(O)CC2)ccc1Nc1ncc2c(n1)N(C)c1ccccc1C(=O)N2C	100%	100%	100%	100%	100%	100%	100%	31%	100%	100%	100%	100%	100%	100%	100%	100%	100%	100%	100%	100%	kinase still bound, per cent of control (EPHB6 (human)): 100%; kinase still bound, per cent of control [1]: 100%; kinase still bound, per cent of control (MAP3K6 (human)): 100%; kinase still bound, per cent of control [2]: 100%; kinase still bound, per cent of control [3]: 100%; kinase still bound, per cent of control (PIK3CB (human)): 100%; kinase still bound, per cent of control [4]: 100%; kinase still bound, per cent of control (STK36 (human)): 100%; kinase still bound, per cent of control [5]: 100%; kinase still bound, per cent of control (ULK1 (human)): 100%; kinase still bound, per cent of control (ULK3 (human)): 100%; kinase still bound, per cent of control (WEE1 (human)): 100%

Second part, led by results:

kinase still bound, per cent of control (AURKB (human))	kinase still bound, per cent of control (CAMK2D (human))	kinase still bound, per cent of control (CDK3 (human))	kinase still bound, per cent of control (CIT (human))	kinase still bound, per cent of control (CSNK1G1 (human))	kinase still bound, per cent of control (DAPK1 (human))	kinase still bound, per cent of control (EGFR (human))	kinase still bound, per cent of control (GAK (human))	kinase still bound, per cent of control (MAP4K5 (human))	kinase still bound, per cent of control (MAPK12 (human))	kinase still bound, per cent of control (MKNK2 (human))	kinase still bound, per cent of control (NEK5 (human))	kinase still bound, per cent of control (PDGFRA (human))	kinase still bound, per cent of control (PDPK1 (human))	kinase still bound, per cent of control (PRKCE (human))	kinase still bound, per cent of control (PRKD2 (human))	kinase still bound, per cent of control (PTK2B (human))	kinase still bound, per cent of control (RIOK3 (human))	kinase still bound, per cent of control (SIK1 (human))	kinase still bound, per cent of control (STK10 (human))	SMILES	other results
100%	100%	100%	31%	100%	100%	100%	100%	100%	100%	100%	100%	1.2%	100%	100%	100%	100%	100%	100%	100%	Cc1cn(-c2cc(C(=O)Nc3ccc(C)c(NC(=O)c4ccno4)c3)cc(C(F)(F)F)c2)cn1	kinase still bound, per cent of control (EPHB6 (human)): 100%; kinase still bound, per cent of control [1]: 100%; kinase still bound, per cent of control (MAP3K6 (human)): 100%; kinase still bound, per cent of control [2]: 100%; kinase still bound, per cent of control [3]: 100%; kinase still bound, per cent of control (PIK3CB (human)): 100%; kinase still bound, per cent of control [4]: 100%; kinase still bound, per cent of control (STK36 (human)): 100%; kinase still bound, per cent of control [5]: 100%; kinase still bound, per cent of control (ULK1 (human)): 100%; kinase still bound, per cent of control (ULK3 (human)): 100%; kinase still bound, per cent of control (WEE1 (human)): 100%
100%	100%	100%	0.7%	100%	100%	3.4%	26%	1.6%	100%	100%	100%	8.6%	100%	100%	100%	0.9%	100%	0.1%	0%	COc1ccc(N(C(=O)Oc2cc(C(=O)Nc3cccc(C(F)(F)F)c3)ccc2C)c2ccnc(Nc3ccc(N4CCN(C)CC4)cc3)n2)c(OC)c1	kinase still bound, per cent of control (STK36 (human)): 1.2%; kinase still bound, per cent of control (WEE1 (human)): 100%
100%	100%	100%	100%	100%	100%	0.55%	2.5%	100%	100%	14%	100%	100%	100%	100%	100%	0.15%	100%	100%	100%	COc1cc(N2CCC(C(N)=O)CC2)ccc1Nc1nc(N)c(Cl)c(Nc2ccccc2S(=O)(=O)C(C)C)n1	kinase still bound, per cent of control [1]: 100%; kinase still bound, per cent of control (PIK3CB (human)): 100%; kinase still bound, per cent of control [4]: 100%; kinase still bound, per cent of control (STK36 (human)): 100%; kinase still bound, per cent of control [5]: 100%; kinase still bound, per cent of control (ULK1 (human)): 100%; kinase still bound, per cent of control (ULK3 (human)): 100%; kinase still bound, per cent of control (WEE1 (human)): 100%
